According to patent publication US8530408B2, “Substrates of N-end rule ubiquitylation and methods for measuring the ubiquitylation of these substrate” (Meso Scale Technologies LLC, priority 2002, dated 2013):

Experiments:
RGS4 ubiquitylation = assay: ECL assay for N-end rule ubiquitylation of RGS4; format: biochemical; conditions: 1 mM inhibitor; rabbit reticulocyte lysate; 50 μM MG-132; 30° C.; FIG. 2(A),(B)
Protocol: (§1) Protein was produced from the plasmid DNA in a transcription-translation reaction mixture containing rabbit reticulocyte lysate and SP6 RNA polymerase (TNT SP6 Quick Mix, Promega) and that was further supplemented with 20 μM methionine, 8-30 μg/ml plasmid DNA, 20 μg/ml biotinylated Lys-tRNA (transcend tRNA, Promega), and 50 μM of the proteosome inhibitor MG-132 (Calbiochem) in a total volume of 12.5 μl. Ubiquitylation of newly synthesized proteins occurred in the same reaction mixtures and was driven by the ubiquitylation system present in reticulocyte lysates. An ECL-based ubiquitylation assay (described below) was used to determine if the newly synthesized protein was ubiquitylated. […]
(§2) The reactions were allowed to proceed for a desired period of time at 30° C. In some experiments, several reaction time points were analyzed. […] Thereafter the plate was washed three times with 20 mM Tris-HCl, 0.004% Triton X-100 followed by addition of 150 μl of a buffered solution containing tripropylamine (MSD Read Buffer, Meso-Scale Discovery, Gaithersburg Md.) into each well. ECL signals from labels bound to the electrode surfaces were measured using a Sector HTS instrument. […]

tau ubiquitylation = assay: ECL assay for N-end rule ubiquitylation of tau; format: biochemical; conditions: 1 mM inhibitor; rabbit reticulocyte lysate; 50 μM MG-132; 30° C.; FIG. 3(A),(B)
Protocol: as §1, §2

aprataxin ubiquitylation = assay: ECL assay for N-end rule ubiquitylation of aprataxin; format: biochemical; conditions: 1 mM inhibitor (equivalent concentrations); rabbit reticulocyte lysate; 50 μM MG-132; 30° C.; FIG. 4(A),(B)
Protocol: as §1
(§3) The reactions were allowed to proceed for a desired period of time at 30° C. In some experiments, several reaction time points were analyzed. […] Thereafter the plate was washed three times with 20 mM Tris-HCl, 0.004% Triton X-100 followed by addition of 150 μl of a buffered solution containing tripropylamine (MSD Read Buffer, Meso-Scale Discovery, Gaithersburg Md.) into each well. ECL signals from labels bound to the electrode surfaces were measured using a Sector HTS instrument.
Aprataxin was produced using IMAGE clone #3994375 and analyzed for its ability to act as an N-end rule substrate by ECL assay and by gel electrophoresis as described in the Materials and Methods.

[1] = tested on: synaptotagmin-like protein 2 ubiquitylation; assay: ECL assay for N-end rule ubiquitylation of synaptotagmin-like protein 2; format: biochemical; conditions: 1 mM inhibitor; rabbit reticulocyte lysate; 50 μM MG-132; 30° C.; FIG. 5(A),(B)
Protocol: as §1, §3
Synaptotagmin-like protein 2 was produced using IMAGE clone #3887550 and analyzed for its ability to act as an N-end rule substrate by ECL assay and by gel electrophores is as described in the Materials and Methods.

HMGN2 ubiquitylation = assay: ECL assay for N-end rule ubiquitylation of HMGN2; format: biochemical; conditions: 1 mM inhibitor; rabbit reticulocyte lysate; 50 μM MG-132; 30° C.; FIG. 6(A),(B)
Protocol: as §1, §3
High Mobility Group Chromosomal Protein 17 (now renamed HMGN2) was produced using IMAGE clone #3455121 and analyzed for its ability to act as an N-end rule substrate by ECL assay as described in Materials and Methods. […]

cdc6 ubiquitylation = assay: ECL assay for N-end rule ubiquitylation of CDC6; format: biochemical; conditions: 1 mM inhibitor; rabbit reticulocyte lysate; 50 μM MG-132; 30° C.; FIG. 7(A),(B)
Protocol: as §1, §3
Cell Cycle Controller cdc6 was produced using IMAGE clone #3867414 and analyzed for its ability to act as an N-end rule substrate by ECL assay and by gel electrophoresis as described in the Materials and Methods.

HSPC144 ubiquitylation = assay: ECL assay for N-end rule ubiquitylation of HSPC144; format: biochemical; conditions: 1 mM inhibitor; rabbit reticulocyte lysate; 50 μM MG-132; 30° C.; FIG. 8(A),(B)
Protocol: as §1, §3
HSPC144 was produced using IMAGE clone #3907737 and analyzed for its ability to act as an N-end rule substrate by ECL assay as described in the Materials and Methods.

PinX1 ubiquitylation = assay: ECL assay for N-end rule ubiquitylation of PinX1; format: biochemical; conditions: 1 mM inhibitor; rabbit reticulocyte lysate; 50 μM MG-132; 30° C.; FIG. 9(A),(B)
Protocol: as §1, §3
PinX1 was produced using IMAGE clone #3911679 and analyzed for its ability to act as an N-end rule substrate by ECL assay as described in the Materials and Methods.

HMGN3 ubiquitylation = assay: ECL assay for N-end rule ubiquitylation of HMGN3; format: biochemical; conditions: 1 mM inhibitor; HMGN3 from clones #3890883 and #4749335, effect most pronounced for clone #4749335; rabbit reticulocyte lysate; 50 μM MG-132; 30° C.; FIG. 10
Protocol: as §1, §3
HMGN3 was produced using IMAGE clones #3890883 and #4749335 and analyzed for its ability to act as an N-end rule substrate by ECL assay as described in Materials and Methods.

[2] = tested on: RGS4 ubiquitin/proteosome degradation via N-end rule pathway; assay: Denaturing gel analysis of N-end rule-dependent degradation of RGS4; format: biochemical, rabbit; conditions: [14C]-lysine, MG-132 omitted, SDS-PAGE time course, 30° C.; FIG. 2(C)
Protocol: Proteins were synthesized as described in the previous section except that biotinylated Lys-tRNA was substituted with [^14C]-lysine, and MG-132 was omitted. The reactions were incubated at 30° C. for indicated times. They were stopped by transferring of aliquots of reactions into SDS-sample buffer. The samples were heated for 5 min at 95° C. and fractionated by SDS-PAGE on 4-20% gradient polyacrylamide gels. Gels were soaked in Amplify™ fluorographic reagent (Amersham Pharmacia Biotech), dried and exposed to X-ray films.
RGS4 was produced and characterized as an N-end rule substrate as described in the Materials and Methods section. RGS4 is a known Type 1 N-end rule ubiquitylation substrate (Davydov and Varshavsky, 2000, J. Biol. Chem., 275: 22931).

Row | Substance | % of RGS4 ubiquitylation in the presence of specific N-end rule inhibitors compared to the reaction in the absence of the inhibitors (RGS4 ubiquitylation) | % of tau ubiquitylation in the presence of specific N-end rule inhibitors compared to the reaction in the absence of the inhibitors (tau ubiquitylation) | % of aprataxin ubiquitylation in the presence of specific N-end rule inhibitors compared to the reaction in the absence of the inhibitors (aprataxin ubiquitylation) | % of synaptotagmin-like protein 2 ubiquitylation in the presence of specific N-end rule inhibitors compared to the reaction in the absence of the inhibitors [1] | % of HMGN2 ubiquitylation in the presence of specific N-end rule inhibitors compared to the reaction in the absence of the inhibitors (HMGN2 ubiquitylation) | % of cdc6 ubiquitylation in the presence of specific N-end rule inhibitors compared to the reaction in the absence of the inhibitors (cdc6 ubiquitylation) | % of HSPC144 ubiquitylation in the presence of specific N-end rule inhibitors compared to the reaction in the absence of the inhibitors (HSPC144 ubiquitylation) | % of PinX1 ubiquitylation in the presence of specific N-end rule inhibitors compared to the reaction in the absence of the inhibitors (PinX1 ubiquitylation) | % of HMGN3 ubiquitylation in the presence of specific N-End Rule inhibitors compared to the reaction in the absence of the inhibitors (HMGN3 ubiquitylation) | accumulation of the C-terminal fragment of RGS4 having the N-terminal Met removed (autoradiogram) [2]
1 | Arg-β-Ala | inhibit RGS4 ubiquitylation to a similar extent | inhibit tau ubiquitylation to a similar extent | inhibit aprataxin ubiquitylation to a similar extent | little to no effect | inhibit HMGN2 ubiquitylation to a similar extent | inhibit cdc6 ubiquitylation to a similar extent | inhibit HSPC ubiquitylation to a similar extent | inhibit PinX1 ubiquitylation to a similar extent | inhibit HMGN3 ubiquitylation to a greater extent | time dependent accumulation exclusively in the presence of Arg-β-Ala inhibitor
2 | Trp-Ala | little to no effect | little to no effect | little to no effect | inhibit synaptotagmin-like protein 2 ubiquitylation to a similar extent | little to no effect | smaller effect | no effect | no effect | little effect | 
